≈ marks a conversion by molar mass, not a printed value.
What was measured:
[1] = molecular target: enzyme I of the bacterial phosphotransferase system (PTS) (Escherichia coli, UniProt P08839); experiment: Assay for Enzyme I dependent PEP: peptide phosphotransferase activity (LDH-coupled, NADH read-out at 340 nm); format: biochemical; details: enzyme I 0.75 μM, 0.8 mM PEP, pH 7.5; read-out: Inhibition of PTS (IC50 in μM)
From the text: The determination of activity of a compound of the present invention in the PTS may be summarized as follows:
Assay for Enzyme I Dependent PEP:
Peptide Phosphotransferase Activity. [formula]
To find inhibitors of Enzyme I of the PTS by high throughput screening, an in vitro assay based on spectrophotometric read out at 340 nm has been set up. The assay comprises of three major components, purified enzyme I in catalytic amounts, Phosphoenol Pyruvate (PEP) as the phosphoryl donor substrate and purified HPr as the phosphoryl acceptor substrate.
The assay couples the formation of pyruvate formed from PEP to lactate, catalyzed by lactate dehydrogenase. The disappearance of NADH, cofactor required by lactate dehydrogenase, is determined spectrophotometerically at 340 nm. The assay is done in a U-shaped microtiter plate format, and quantitation is done using microplate absorbance reader.
100 μl reaction mixture contained 0.8 mM PEP, 0.2 mM NADH, 3 μg lactate dehydrogenase (Boehringer Mannheim), 50 mM KPi pH=7.5, 2.5 mM dithiothreitol, 2.5 mM NaF, 5 mM MgCI2, and between 50 and 100 μM of the compound. The reaction is started by the addition of enzyme I (final concentration 0.75 μM). In a control experiment the compound is replaced by DMSO.

[2] = test system: Staphylococcus aureus ATCC25923; experiment: In vitro antibacterial activity (MIC, NCCLS M7-A5 dilution susceptibility test); format: cell-based; details: for MIC: read-out: Minimum Inhibitory Concentration (MIC) Staphylococcus aureus ATCC25923
Description: (§1) Antimicrobial susceptibility testing was performed in accordance with the National Committee for Clinical Laboratory Standards (NCCLS) procedure [M7-A5, 2001: Methods for Dilution Antimicrobial Susceptibility Tests for Bacteria That Grow Aerobically; Approved Standard-Fifth Edition American National Standard].

Escherichia coli DC2 = experiment: as above; format: cell-based; details: for MIC: read-out: Minimum Inhibitory Concentration (MIC) Escherichia coli DC2
Description: as §1

| Compound | IC50 [1] | MIC [2] | MIC (Escherichia coli DC2) | other results |
| --- | --- | --- | --- | --- |
| 4-chloro-N′-(2-hydroxy-3-chloro-benzylidene)-benzohydrazide [Example 36] | 100 µM | – | – | – |
| O=C(NN=Cc1cc(O)ccc1O)c1ccccc1 [Example 1, N′-(2,5-Dihydroxy-benzylidene)-benzohydrazide] | 15 µM | 64 µg/mL (≈ 250 µM) | 128 µg/mL (≈ 499 µM) | – |
| O=C(Cc1c[nH]c2ccccc12)NN=Cc1ccccc1O [Example 2, N′-(2-Hydroxy-benzylidene)-2-(1H-indol-3-yl)-acetohydrazide] | 50 µM | – | – | – |
| O=C(NN=Cc1cc(O)ccc1O)c1cccc2ccccc12 [Example 3, N′-(2,5-Dihydroxy-benzylidene)-naphthalene-1-carbohydrazide] | 6 µM | – | – | – |
| COc1cc(C(=O)NN=Cc2ccc(O)c(O)c2O)cc(OC)c1OC [Example 4, 3,4,5-Trimethoxy-N′-(2,3,4-trihydroxy-benzylidene)-benzohydrazide] | 15 µM | 128 µg/mL (≈ 353 µM) | 128 µg/mL (≈ 353 µM) | – |
| Nc1ccc(Cl)cc1C(=O)NN=Cc1ccccc1O [Example 5, 2-Amino-5-chloro-N′-(2-hydroxy-benzylidene)-benzohydrazide] | 6 µM | – | – | – |
| O=C(NN=Cc1ccc(O)cc1O)c1cccc(C(F)(F)F)c1 [Example 6, 3-Trifluoromethyl-N′-(2,4-dihydroxy-benzylidene)-benzohydrazide] | 10 µM | > 128 µg/mL | 32 µg/mL (≈ 98.7 µM) | – |
| COc1cccc(C(=O)NN=C(C)c2ccccc2O)c1 [Example 7, 3-Methoxy-N′-[1-(2-hydroxy-phenyl)-ethylidene]-benzohydrazide] | 8 µM | – | – | – |
| COc1cccc(C(=O)NN=Cc2cc(O)ccc2O)c1 [Example 8, 3-Methoxy-N′-(2,5-dihydroxy-benzylidene)-benzohydrazide] | 15 µM | – | – | – |
| O=C(NN=Cc1ccc(O)c(O)c1O)c1ccc(Cl)c(Cl)c1 [Example 9, 3,4-Dichloro-N′-(2,3,4-trihydroxy-benzylidene)-benzohydrazide] | 75 µM | 8 µg/mL (≈ 23.5 µM) | 32 µg/mL (≈ 93.8 µM) | – |
| O=C(NN=Cc1cc(O)ccc1O)c1ccc(Cl)cc1 [Example 10, 4-Chloro-N′-(2,5-dihydroxy-benzylidene)-benzohydrazide] | 8 µM | 128 µg/mL (≈ 440 µM) | > 128 µg/mL | – |
| O=C(NN=Cc1cc(O)ccc1O)c1ccc(O)cc1 [Example 11, 4-Hydroxy-N′-(2,5-dihydroxy-benzylidene)-benzohydrazide] | 0.5 µM | – | – | – |
| O=C(NN=Cc1cc(O)ccc1O)c1ccc(Cl)c(Cl)c1 [Example 12, 3,4-Dichloro-N′-(2,5-dihydroxy-benzylidene)-benzohydrazide] | 0.7 µM | – | – | – |
| O=C(NN=Cc1cc(O)ccc1O)c1cccc(Cl)c1 [Example 13, 3-Chloro-N′-(2,5-dihydroxy-benzylidene)-benzohydrazide] | 0.7 µM | – | – | – |
| COc1cc(C(=O)NN=Cc2cc(Cl)ccc2O)ccc1O [Example 14, 4-Hydroxy-3-methoxy-N′-(5-chloro-2-hydroxy-benzylidene)-benzohydrazide] | 25 µM | 128 µg/mL (≈ 399 µM) | 128 µg/mL (≈ 399 µM) | – |
| CC(=NNC(=O)c1ccccc1)c1cc(O)ccc1O [Example 15, N′-[1-(2,5-Dihydroxy-phenyl)-ethylidene]-benzohydrazide] | 6 µM | – | – | – |
| COc1cc(C(=O)NN=Cc2cc(O)ccc2O)ccc1O [Example 16, N′-(2,5-Dihydroxy-benzylidene)-4-hydroxy-3-methoxy-benzohydrazide] | 4 µM | – | – | – |
| Cc1ccc(O)c(C=NNC(=O)c2ccccc2)c1 [Example 17, N′-(2-Hydroxy-5-methyl-benzylidene)-benzohydrazide] | 6 µM | – | – | – |
| CNc1ccccc1C(=O)NN=Cc1cc(Cl)ccc1O [Example 18, 2-Methylamino-N′-(5-chloro-2-hydroxy-benzylidene)-benzohydrazide] | 4 µM | – | – | – |
| CNc1ccccc1C(=O)NN=Cc1cc(O)ccc1O [Example 19, 2-Methylamino-N′-(2,5-dihydroxy-benzylidene)-benzohydrazide] | 2 µM | – | – | – |
| Cc1cccc(C(=O)NN=Cc2cc(Cl)ccc2O)c1 [Example 20, 3-Methyl-N′-(5-chloro-2-hydroxy-benzylidene)-benzohydrazide] | 4 µM | – | – | – |
| O=C(NN=Cc1cc(Cl)ccc1O)c1cccc(C(F)(F)F)c1 [Example 21, 3-Trifluoromethyl-N′-(5-chloro-2-hydroxy-benzylidene)-benzohydrazide] | 12 µM | 16 µg/mL (≈ 46.7 µM) | > 128 µg/mL | – |

| Compound | IC50 [1] | MIC [2] | MIC (Escherichia coli DC2) | other results |
| --- | --- | --- | --- | --- |
| CNc1ccccc1C(=O)NN=C(C)c1ccccc1O [Example 22, 2-methylamino-N′-[1-(2-hydroxy-phenyl)-ethylidene]-benzohydrazide] | 2 µM | – | – | – |
| CC(=O)Nc1ccccc1C(C)=NNC(=O)c1ccccc1 [Example 23, N-[2-[1-(2-Benzoyl-hydrazono)-ethyl]-phenyl]-acetamide] | 250 µM | – | – | – |
| CC(=NNC(=O)c1ccc(Cl)cc1)c1ccccc1N [Example 24, 4-Chloro-N′-[1-(2-amino-phenyl)-ethylidene]-benzohydrazide] | 0.8 µM | – | – | – |
| COc1cccc(C(=O)NN=C(C)c2ccccc2N)c1 [Example 25, 3-Methoxy-N′-[1-(2-Amino-phenyl)-ethylidene]-benzohydrazide] | 20 µM | – | – | – |
| O=C(NN=Cc1cccc(O)c1O)c1ccccc1 [Example 26, N′-(2,3-Dihydroxy-benzylidene)-benzohydrazide] | 50 µM | – | – | – |
| COc1cccc(C(=O)NN=Cc2ccccc2O)c1 [Example 27, 3-Methoxy-N′-(2-hydroxy-benzylidene)-benzohydrazide] | 7 µM | – | – | – |
| O=C(NN=Cc1ccc(O)c(O)c1O)c1ccccc1 [Example 28, N′-(2,3,4-Trihydroxy-benzylidene)-benzohydrazide] | 3 µM | – | – | – |
| O=C(NN=Cc1ccccc1O)c1ccc(Br)cc1 [Example 31, 4-Bromo-N′-(2-hydroxy-benzylidene)-benzohydrazide] | 75 µM | – | – | – |
| O=C(NN=Cc1ccccc1O)c1cccc(C(F)(F)F)c1 [Example 32, 3-Trifluoromethyl-N′-(2-hydroxy-benzylidene)-benzohydrazide] | 7 µM | – | – | – |
| Cc1cccc(C(=O)NN=Cc2cc(O)ccc2O)c1 [Example 33, 3-Methyl-N′-(2,5-dihydroxy-benzylidene)-benzohydrazide] | 2 µM | – | – | – |
| O=C(NN=Cc1cc(O)ccc1O)c1cccc(C(F)(F)F)c1 [Example 34, 3-Trifluoromethyl-N′-(2,5-dihydroxy-benzylidene)-benzohydrazide] | 15 µM | – | – | – |
| CC(=NNC(=O)c1ccc(O)cc1)c1cc(O)ccc1O [Example 35, 4-Hydroxy-N′-[1-(2,5-dihydroxy-phenyl)-ethylidene]-benzohydrazide] | 1.75 µM | – | – | – |
| O=C(NN=Cc1ccc(O)cc1O)c1ccc(Cl)cc1 [Example 37, 4-Chloro-N′-(2,4-dihydroxy-benzylidene)-benzohydrazide] | 20 µM | – | – | – |
| O=C(NN=Cc1cc(Cl)ccc1O)c1cccc(Cl)c1 [Example 38, 3-Chloro-N′-(2-hydroxy-5-chloro-benzylidene)-benzohydrazide] | 75 µM | – | – | – |
| O=C(NN=Cc1cc(O)c(O)cc1O)c1ccc(Cl)cc1 [Example 47, 4-Chloro-N′-(2,4,5-trihydroxy-benzylidene)-benzohydrazide] | – | 8 µg/mL (≈ 26.1 µM) | 64 µg/mL (≈ 209 µM) | – |
| O=C(NN=Cc1cc(Cl)cc(Cl)c1O)c1ccccc1 [Example 48, N′-(2-Hydroxy-3,5-dichloro-benzylidene)-benzohydrazide] | – | 128 µg/mL (≈ 414 µM) | > 128 µg/mL | – |
| O=C(NN=Cc1ccc(O)c(O)c1O)c1cccc(Cl)c1 [Example 49, 3-Chloro-N′-(2,3,4-trihydroxy-benzylidene)-benzohydrazide] | – | 16 µg/mL (≈ 52.2 µM) | 64 µg/mL (≈ 209 µM) | – |
| O=C(NN=Cc1cc(O)c(O)cc1O)c1cccc(C(F)(F)F)c1 [Example 50, 3-Trifluoromethyl-N′-(2,4,5-trihydroxy-benzylidene)-benzohydrazide] | – | 32 µg/mL (≈ 94 µM) | > 128 µg/mL | – |
| O=C(NN=Cc1ccc(O)c(O)c1O)c1cccc(C(F)(F)F)c1 [Example 51, 3-Trifluoromethyl-N′-(2,3,4-trihydroxy-benzylidene)-benzohydrazide] | – | 8 µg/mL (≈ 23.5 µM) | 64 µg/mL (≈ 188 µM) | – |
| CC(=NNC(=O)c1ccc(Cl)c(Cl)c1)c1ccc(O)c(O)c1O [Example 52, 3,4-Dichloro-N′-[1-(2,3,4-dihydroxy-phenyl)-ethylidene]-benzohydrazide] | – | – | – | Minimum Inhibitory Concentration (MIC) Staphylococcus aureus ATCC25923 [2]: 4 micrograms/ml; Minimum Inhibitory Concentration (MIC) Escherichia coli DC2 (Escherichia coli DC2): 64 micrograms/ml |
| CN(N=Cc1ccc(O)c(O)c1O)C(=O)c1ccc(Cl)c(Cl)c1 [Example 53, 3,4-Dichloro-N-methyl-N′-(2,3,4-trihydroxy-benzylidene)-benzohydrazide] | – | 128 µg/mL (≈ 360 µM) | > 128 µg/mL | – |
